In patent US20100267629A1, “Enterostatin as Therapeutic Agent for Hypoglycemia” (Board of Supervisors of Louisiana State University and …, priority 2006, published 2010):

Experiments:
C57B1/6 male mice [1] = experiment: Blood glucose response to insulin; format: in vivo, mouse
Procedure: (§1) Animals: C57B1/6 male mice were purchased from The Jackson Laboratory (Bar Harbor, Me.) at 6 weeks of age. The mice were initially housed in groups of three in acrylic cages in a room with a 12-hour light/dark cycle and with controlled temperature (22 to 23° C.) and with free access to water. The mice were fed a high fat diet (4.78 kcal/g, 56% energy as fat; Research Diets Inc, Brunswick, N.J.). The composition of the diet has been previously described (15). Body weights were measured three time per week. At 8 weeks of age, the mice were switched to single housing.
(§2) Peptide Injections: Enterostatin was dissolved in 0.1 ml saline (0.9% NaCl w/v), and given as a single dose of either 5 μg or 25 μg/mouse. Either enterostatin or saline (control) was injected intraperitoneally. In the experiments involving insulin, insulin (0.75 mU/g body weight) or saline (0.1 ml/10 g body weight; control) was injected intraperitoneally.
Enterostatin Effect on Blood Glucose Response to Insulin. To test the effect of enterostatin on the blood glucose response to exogenous insulin, mice were fasted for 4 hours, and insulin (0.75 mU/gm body weight) or saline (0.1 ml/10 gm body weight) was injected intraperitoneally at time zero. Enterostatin (5 or 25 ug/mouse in 0.1 ml saline vehicle) or saline vehicle was also injected intraperitoneally (ip) at time zero. Blood samples were taken from the tail vein immediately before the injections, and then at 15, 30, 45 and 60 minutes afterwards. The samples were assayed for glucose on a glucometer (Ascencia Elite XL, Bayer, Pittsburgh, Pa.).

C57B1/6 male mice [2] = experiment: Glucose tolerance test; format: in vivo, mouse; conditions: 18 h fasted, vs control
Procedure: as §1, §2
Enterostatin Effect on Glucose Tolerance Tests: For glucose tolerance tests, mice were fasted overnight (18 hours). Enterostatin (5 or 25 ug/mouse in 0.1 ml saline vehicle) or saline vehicle was injected intraperitoneally (ip) 20 minutes before an intraperitoneal injection of glucose (1.0 mg/gm body weight). Blood samples were taken from the tail vein immediately before glucose administration, and then at 15, 30, 45 and 60 min after glucose injection. […]

C57B1/6 male mice [3] = experiment: Fasting blood glucose after enterostatin injection; format: in vivo, mouse
Procedure: as §1, §2
Enterostatin Effect on Fasting Blood Glucose. To directly test the effect of enterostatin on blood glucose, mice were fasted for 18 hours, and enterostatin (25 μg/mouse) or 0.1 ml saline vehicle was injected intraperitoneally at zero time. Blood samples were taken from the tail vein at 15, 30, 45 and 60 min after enterostatin injection. The blood samples were assayed for glucose using a glucometer.

AMPK = experiment: In vivo AMPK activity, Western blot of liver and hypothalamus; parameters: species or system mouse
Procedure: A separate set of mice (n=6/group) were fasted overnight (18 hours) before injection with either saline vehicle (0.1 ml) or enterostatin (5 or 25 ug/mouse) intraperitoneally. The mice were sacrificed by cervical dislocation either at 30 min (certain enterostatin-treated groups) or 60 min (both certain enterostatin- and vehicle-treated groups) after the injection. The tissues of liver and hypothalamus were rapidly dissected and frozen in liquid nitrogen. The tissues were stored at −80 C before processing for AMPK activity. For AMPK activity, the tissues were unfrozen, the cells lysed, and the cytosolic proteins subjected to Western blot analysis for AMPK and pAMPK activity.

[4] = target: brain membrane preparation; conditions: low affinity binding; cited from earlier work
sheep = conditions: single-choice diet; cited from earlier work
kappa-opioid receptors = kappa-opioid receptors (Homo sapiens, UniProt P41145); conditions: cited from earlier work
[5] = peripheral and central administration; cited from earlier work

Chain of kappa-opioid receptors (P41145 whole entry): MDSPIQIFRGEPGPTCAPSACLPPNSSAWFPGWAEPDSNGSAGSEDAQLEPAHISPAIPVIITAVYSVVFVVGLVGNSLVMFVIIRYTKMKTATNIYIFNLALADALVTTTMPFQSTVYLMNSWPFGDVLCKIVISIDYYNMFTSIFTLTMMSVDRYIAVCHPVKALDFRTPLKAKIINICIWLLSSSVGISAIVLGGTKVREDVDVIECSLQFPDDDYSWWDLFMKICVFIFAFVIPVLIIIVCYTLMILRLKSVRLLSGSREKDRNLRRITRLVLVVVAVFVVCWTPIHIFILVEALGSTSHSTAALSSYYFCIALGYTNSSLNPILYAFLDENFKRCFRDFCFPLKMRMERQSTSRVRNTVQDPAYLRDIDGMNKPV

Substance: Enterostatin: aminoterminal pentapeptide of procolipase released when procolipase is converted into colipase (VPDPR; printed: Val-Pro-Asp-Pro-Arg)
- Blood glucose level versus zero-time level after insulin (C57B1/6 male mice [1]; 5 μg/mouse ip, at 60 min): had not returned to zero-time levels
- Time for which blood glucose is increased after injection (C57B1/6 male mice [1]; conclusion from insulin response test): ≥ 30 min
- Delay of initial fall in blood glucose in response to insulin (C57B1/6 male mice [1]; higher dose (25 μg/mouse) ip): 30 min
- Blood glucose level versus zero-time level after insulin (C57B1/6 male mice [1]; higher dose (25 μg/mouse) ip, 45 to 60 min): remained below the zero-time level
- Clearance of blood glucose (C57B1/6 male mice [2]; 5 μg/mouse ip 20 min before glucose 1.0 mg/gm): no differences
- Clearance of blood glucose (C57B1/6 male mice [2]; 25 μg/mouse ip 20 min before glucose 1.0 mg/gm): no differences
- Blood glucose levels compared to saline control (C57B1/6 male mice [3]; 25 μg/mouse ip, 18 h fasted): rapid increase in blood glucose levels
- Increase in blood glucose versus saline vehicle (C57B1/6 male mice [3]; 25 μg/mouse ip, at 15 and 30 min): significantly greater
- Duration of raised glucose levels after injection (C57B1/6 male mice [3]; injection into mice): remained high for up to an hour after injection
- Time to increase in blood glucose levels after injection (C57B1/6 male mice [3]; injection into mice): ≤ 15 min
- Hypothalamic pAMPK (AMPK; 5 or 25 μg/mouse ip): unaltered
- Total AMPK (AMPK; 5 or 25 μg/mouse ip): unaffected
- Liver pAMPK levels (AMPK; 30 and 60 min after ip injection, even at lower dose (5 μg/mouse)): reduced
- Kd [4]: 230 nM
- Food intake (sheep): reduce food intake
- Binding (kappa-opioid receptors): not to bind
- Insulin levels [5]: reduction in insulin levels
- Plasma glucose [5]: without any changes in plasma glucose
